From patent publication US9233933B2, “4,4-disubstituted-1,4-dihydropyrimidines and the use thereof as medicaments for the treatment of hepatitis B” (priority 2012, dated 2016)
pEC50: −log10 of the molar value. Counter-ions that a name gives are not always drawn. Like-named read-outs stand apart in the source and are kept apart here.

Tests used:
[1] = Cytotoxicity in HepG2 cells using CellTiter-Blue, same incubation period as HepG2.2.15 assay; type: cell-based; settings: human
Experimental: Cytotoxicity of the compounds was tested in HepG2 cells using CellTiter-Blue, with the same incubation period and dose range as in the HepG2.2.15 assay.

[2] = tested on: HBV; test: anti-HBV activity in stable transfected HepG2.2.15 cell line, HBV DNA from secreted virions by realtime PCR; type: cell-based, Hepatitis B virus; settings: read-out: HBV-HepG2 2.15 EC50
[3] = tested on: HBV; test: anti HBV activity in HepG2.117 cell line (Tet-off, inducibly HBV producing), intracellular HBV DNA by realtime PCR; type: cell-based, Hepatitis B virus; settings: read-out: HepG2 117 EC50
[4] = in vitro; settings: human, HepG2 4 days CC50
[5] = Cytotoxicity in HepG2 cells incubated 4 days, Resazurin assay; settings: human, HepG2 4 days CC50, HepG2 cells
[6] = Hepatitis B virus, HepG2.2.15, 144 h, HepG2.2.15 cells, 6 days of treatment, secreted virion HBV DNA
[7] = Hepatitis B virus, HepG2.117, 72 h, HepG2.117 cells, 3 days of treatment, intracellular HBV DNA
[8] = HepG2.2.15 cells, 6 days of treatment, secreted virion HBV DNA
[9] = HepG2.117 cells, 3 days of treatment, intracellular HBV DNA
[10] = HepG2 cells, 6 days, CellTiter-Blue, read-out: HepG2 6 days CC50

Structure (SMILES) | CC50 at 6 days ([1]; HepG2 6 days CC50) [µM] | pEC50 [2, 6] | pEC50 [3, 7] | CC50 at 4 days [4] [µM] | pEC50 [2, 8] | pEC50 [3, 9] | CC50 at 6 days [1, 10] [µM] | CC50 at 4 days [5] [µM] | pEC50 ([2]; Hepatitis B virus, HepG2.2.15, 144 h) | pEC50 ([3]; Hepatitis B virus, HepG2.117, 72 h)
COC(=O)C1=C(CN2CCOCC2)NC(c2ccccn2)=NC12CCc1c(F)cccc12 (racemic) [Compound 66] | 89.3 | 6.68 | 6.77 | > 25 |  |  |  |  |  | 
COC(=O)C1=C(C)NC(c2nccs2)=NC12C(F)=C(F)c1cc(F)ccc12 (racemic) [Compound 166] |  | 6.62 | 4.85 | > 25 |  |  |  |  |  | 
COC(=O)C1=C(C)NC(c2nccs2)=NC12C(F)=Cc1c2ccc(F)c1F (racemic) [Compound 174] |  |  | 4.87 | > 25 |  |  |  |  |  | 
COC(=O)C1=C(CN2CCOCC2)NC(c2ccccn2)=N[C@@]12c1ccc(F)cc1C[C@H]2F (racemic) [Compound 175] |  | > 6.71 | 6.84 | > 25 |  |  |  |  |  | 
COC(=O)C1=C(CN2CCOCC2)NC(c2ccccn2)=NC12CCc1c(F)cccc12 (single isomer, unassigned) [Compound 66a] | > 100 |  |  | > 100 | > 6.41 | 7.18 |  |  |  | 
COC(=O)C1=C(CN2CCOCC2)NC(c2ccccn2)=NC12CCc1ccc(F)cc12 (single isomer, unassigned) [Compound 96a] | > 100 |  |  | > 100 | 6.19 | 6.52 |  |  |  | 
COC(=O)C1=C(C)NC(c2ncc(F)cc2F)=NC12c1ccccc1OC2(F)F (single isomer, unassigned) [Compound 106a] | > 100 |  | < 4.30 | > 50 | < 4.00 |  |  |  |  | 
COC(=O)C1=C(C)NC(c2ncc(F)cc2F)=NC12CC(C)(C)c1ccccc12 (single isomer, unassigned) [Compound 134a] | 53 |  | < 4.30 | > 50 | 4.04 |  |  |  |  | 
COC(=O)C1=C(C)NC(c2nccs2)=NC12C(F)=C(F)c1cc(F)ccc12 (single isomer, unassigned) [Compound 166a] |  |  | < 4.60 | > 25 | < 4.30 |  |  |  |  | 
COC(=O)C1=C(CN2CCOCC2)NC(c2ccccn2)=NC12c1ccc(F)cc1C(F)C2(F)F (single isomer, unassigned) [Compound 168A] |  | 5.02 |  | > 25 |  | 5.45 |  |  |  | 
COC(=O)C1=C(C)NC(c2nccs2)=NC12C(F)=Cc1c2ccc(F)c1F (single isomer, unassigned) [Compound 174a] |  |  |  | > 25 |  | 5.05 |  |  |  | 
COC(=O)C1=C(CN2CCOCC2)NC(c2ccccn2)=NC12CC(=O)c1cc(F)ccc12 (centres unmarked) [139 •TFA] |  | 6.00 | 6.15 | > 25 |  |  |  |  |  | 
CCOC(=O)C1=C(C(F)(F)F)NC(c2ccccn2)=NC1(C)c1ccc(F)cc1 (centres unmarked) [Compound 10] |  | < 5.00 | < 5.00 |  |  |  | > 10 | > 10 |  | 
COC(=O)C1=C(CN2CCOCC2)NC(c2ccccn2)=NC1(C)c1ccccc1Cl (centres unmarked) [Compound 13] |  | 5.03 | 5.41 |  |  |  | > 100 | > 100 |  | 
CCOC(=O)C1=C(C)NC(c2ccccn2)=NC1(C)c1ccc(F)c(Cl)c1 (centres unmarked) [Compound 17] |  | < 4.30 | 4.68 |  |  |  | 39.9 | > 25 |  | 
CCOC(=O)C1=C(CN2CCOCC2)NC(c2ccccn2)=NC1(C)c1ccc(F)c(Cl)c1 (centres unmarked) [Compound 18] |  | 5.41 | 5.80 |  |  |  | 36.5 | > 50 |  | 
CCOC(=O)C1=C(CN2CCOCC2)NC(c2ncc(F)cc2F)=NC1(C)c1ccc(F)cc1 (centres unmarked) [Compound 24] |  | 6.50 | 6.80 |  |  |  | 37.9 | > 25 |  | 
COC(=O)C1=C(CN2CCOCC2)NC(c2ncc(F)cc2F)=NC1(C)c1cc(F)cc(Cl)c1 (centres unmarked) [Compound 27] |  | 5.74 | 6.20 |  |  |  | > 100 | > 25 |  | 
COC(=O)C1=C(CN2CCOCC2)NC(c2ccccn2)=NC1(C)c1cc(F)cc(Cl)c1 (centres unmarked) [Compound 29] |  | 5.20 | 5.52 |  |  |  | 47.4 | > 25 |  | 
COC(=O)C1=C(CN2CCOCC2)NC(c2ccccn2)=NC1(C)c1cccc(F)c1 (centres unmarked) [Compound 30] |  | 6.03 | 6.54 |  |  |  | > 100 | > 25 |  | 
COC(=O)C1=C(C)NC(c2ccccn2)=NC1(C)c1cccc(F)c1 (centres unmarked) [Compound 31] |  |  |  |  |  |  | > 100 | > 50 | 4.14 | 4.39
CCOC(=O)C1=C(CN2CCOCC2)NC(c2ccccn2)=NC12CCc1cc(F)ccc12 (centres unmarked) [Compound 39] | 62.9 | 6.39 | 6.39 | > 100 |  |  |  |  |  | 
CCOC(=O)C1=C(CN2CCOCC2)NC(c2ccccn2)=NC1(C)c1ccc(F)cc1Cl (centres unmarked) [Compound 41] |  | 5.13 | 5.35 |  |  |  | > 50 | > 25 |  | 

Structure (SMILES) | CC50 at 6 days ([1]; HepG2 6 days CC50) [µM] | pEC50 [2, 6] | pEC50 [3, 7] | CC50 at 4 days [4] [µM] | pEC50 [2, 8] | pEC50 [3, 9] | CC50 at 6 days [1, 10] [µM] | CC50 at 4 days [5] [µM] | pEC50 ([2]; Hepatitis B virus, HepG2.2.15, 144 h) | pEC50 ([3]; Hepatitis B virus, HepG2.117, 72 h)
CCOC(=O)C1=C(CN2CCOCC2)NC(c2ccccn2)=NC1(C)c1ccc(F)cc1F (centres unmarked) [Compound 42] |  | 5.51 | 5.89 |  |  |  | 57.7 | > 50 |  | 
CCOC(=O)C1=C(CN2CCOCC2)NC(c2ccccn2)=NC12CCC(C)(C)c1ccccc12 (centres unmarked) [Compound 56] | 36.4 | 4.45 | 4.28 | > 100 |  |  |  |  |  | 
CC1(C)CCC2(N=C(c3ccccn3)NC(CN3CCOCC3)=C2C#N)c2ccccc21 (centres unmarked) [Compound 57] |  | < 4.00 | < 4.60 |  |  |  | 87.4 | > 25 |  | 
N#CC1=C(CN2CCOCC2)NC(c2ccccn2)=NC12CCCc1ccc(F)cc12 (centres unmarked) [Compound 58] |  | < 4.00 | < 4.60 |  |  |  | > 100 | > 25 |  | 
CCOC(=O)C1=C(CN2CCOCC2)NC(c2ccccn2)=NC12CCCc1ccc(F)cc12 (centres unmarked) [Compound 59] | 68.9 | 4.23 | 4.33 | > 100 |  |  |  |  |  | 
COC(=O)C1=C(CN2CCOCC2)NC(c2ccccn2)=NC12CCC(C)(C)c1ccccc12 (centres unmarked) [Compound 72] | 71.1 | 4.27 | 4.14 | > 100 |  |  |  |  |  | 
COC(=O)C1=C(CN2CCOCC2)NC(c2ccccn2)=NC12CCCc1cc(F)ccc12 (centres unmarked) [Compound 74] | 78.3 | 5.69 | 5.88 | > 100 |  |  |  |  |  | 
N#CC1=C(CN2CCOCC2)NC(c2ccccn2)=NC12CCc1ccccc12 (centres unmarked) [Compound 76] |  | 5.07 | 5.44 |  |  |  | > 100 | > 100 |  | 
COC(=O)C1=C(C)NC(c2ncc(F)cc2F)=NC12CCCc1cc(F)ccc12 (centres unmarked) [Compound 80] | 51.1 |  | 4.60 | > 50 |  |  |  |  |  | 
COC(=O)C1=C(C)NC(c2ccccn2)=NC12CCOc1ccccc12 (centres unmarked) [Compound 85] | > 100 | < 4.00 | < 4.30 | > 50 |  |  |  |  |  | 
COC(=O)C1=C(CN2CCOCC2)NC(c2ccccn2)=NC12CCOc1ccccc12 (centres unmarked) [Compound 86] | > 100 | 5.06 | 5.26 | > 100 |  |  |  |  |  | 
COC(=O)C1=C(CN2CCOCC2)NC(c2ccccn2)=NC12CCc1ccccc12 (centres unmarked) [Compound 89] | > 100 | 6.22 | 6.33 | > 100 |  |  |  |  |  | 
COC(=O)C1=C(C)NC(c2ccccn2)=NC12CCc1ccccc12 (centres unmarked) [Compound 90] | > 50 | 5.24 | 4.64 | > 50 |  |  |  |  |  | 
COC(=O)C1=C(CN2CCOCC2)NC(c2ncc(F)cc2F)=NC12CC(C)(C)c1ccccc12 (centres unmarked) [Compound 93] | 41.5 | 4.27 | 4.09 | > 100 |  |  |  |  |  | 
COC(=O)C1=C(CN2CCOCC2)NC(c2ccccn2)=NC12CCc1ccc(F)cc12 (centres unmarked) [Compound 96] | > 100 | 6.02 | 6.03 | 97 |  |  |  |  |  | 
COC(=O)C1=C(C)NC(c2ncc(F)cc2F)=NC12C(=O)Nc1cc(F)ccc12 (centres unmarked) [Compound 123] |  | < 4.00 | < 4.60 | > 25 |  |  |  |  |  | 
COC(=O)C1=C(C)NC(c2ncc(F)cc2F)=NC1(C)c1ccc(F)cc1 (centres unmarked) [Compound 128] |  | 5.04 | 5.61 |  |  |  | 63.8 | > 50 |  | 
COC(=O)C1=C(CN2CCOCC2)NC(c2ccccn2)=NC12CCc1cc(F)ccc12 (centres unmarked) [Compound 143] |  |  | 6.65 | > 25 |  |  |  |  |  | 
COC(=O)C1=C(CN2CCOCC2)NC(c2ccccn2)=NC12CC(O)c1cc(F)ccc12 (centres unmarked) [Compound 144] |  |  | 5.31 | > 10 |  |  |  |  |  | 
COC(=O)C1=C(CN2CCOCC2)NC(c2ccccn2)=NC12C=Cc1cc(F)ccc12 (centres unmarked) [Compound 145] |  | 6.44 | 6.21 | > 25 |  |  |  |  |  | 
COC(=O)C1=C(CN2CCOCC2)NC(c2ccccn2)=NC12CC(C)c1cc(F)ccc12 (centres unmarked) [Compound 146] |  | 5.87 | 5.58 | > 25 |  |  |  |  |  | 
COC(=O)C1=C(CN2CCOCC2)NC(c2ccccn2)=NC12C(F)=C(F)c1cc(F)ccc12 (centres unmarked) [Compound 169] |  |  | 6.86 | > 25 |  |  |  |  |  | 
